≈ marks a conversion by molar mass, not a printed value. Calls of active or inactive are those of the source. The calls are words filed in the database; no cut-off is given here.
Legend:
Staphylococcus aureus [1] = test: Antibacterial activity against Staphylococcus aureus assessed as reduction in cellular metabolic activity by resazurin staining based assay; format: functional, organism-based
Staphylococcus aureus [2] = test: Antibacterial activity against Staphylococcus aureus ATCC 25923 assessed as inhibition of bacterial growth; format: functional
Staphylococcus aureus [3] = test: Antibacterial activity against Staphylococcus aureus assessed as inhibition of bacterial growth at 1 to 4 times MIC incubated for 4 hrs; format: functional, organism-based
Staphylococcus aureus [4] = test: Antibacterial activity against Staphylococcus aureus assessed as reduction in bacterial biofilm formation; format: functional, organism-based
Staphylococcus aureus [5] = test: Antibacterial activity against Staphylococcus aureus assessed as reduction in bacterial biofilm formation at 16 x MIC relative to control; format: functional; design: scale not given: the % may be the effect or the level left
Staphylococcus aureus [6] = test: Induction of drug resistance in Staphylococcus aureus assessed as increase in MIC measured for 16 passages; format: functional
Staphylococcus aureus [7] = test: Synergistic antibacterial activity against Staphylococcus aureus assessed as inhibition of bacterial growth in presence of norfloxacin; format: functional
Cell membrane [8] = test: Induction of cytoplasmic membrane depolarization in Staphylococcus aureus assessed as increase in fluorescence intensity measured at 10 mins by DiSC3(5) dye-based fluorescence assay; format: subcellular
Escherichia coli [9] = test: Synergistic antibacterial activity against Escherichia coli ATCC 25922 assessed as fractional inhibitory concentration index in presence of norfloxacin; format: functional
Cell membrane [10] = test: Disruption of cell membrane integrity in Staphylococcus aureus assessed as increase in protein leakage
Escherichia coli [11] = test: Antibacterial activity against Escherichia coli ATCC 25922 assessed as inhibition of bacterial growth; format: functional
Acinetobacter baumannii = test: Antibacterial activity against Acinetobacter baumannii assessed as inhibition of bacterial growth; format: functional
Staphylococcus aureus [12] = test: Antibacterial activity against methicillin resistant Staphylococcus aureus N315 assessed as inhibition of bacterial growth; format: functional
Pseudomonas aeruginosa [13] = test: Antibacterial activity against Pseudomonas aeruginosa assessed as inhibition of bacterial growth; format: functional
Staphylococcus aureus [14] = test: Antibacterial activity against Staphylococcus aureus assessed as fold increase in malondialdehyde level at 1 to 5 times MIC; format: functional
Staphylococcus aureus [15] = test: Antibacterial activity against Staphylococcus aureus assessed as inhibition of bacterial growth; format: functional
Klebsiella pneumoniae = test: Antibacterial activity against Klebsiella pneumoniae assessed as inhibition of bacterial growth; format: functional
Staphylococcus aureus [16] = test: Synergistic antibacterial activity against Staphylococcus aureus assessed as fractional inhibitory concentration index in presence of norfloxacin; format: functional
Staphylococcus aureus [17] = test: Antibacterial activity against Staphylococcus aureus assessed as fold increase in intracellular ROS production at 8 times MIC by DCFH-DA dye based fluorometric assay relative to control; format: functional
Calf thymus DNA [18] = test: Binding affinity to calf thymus DNA by DAPI staining based competitive binding assay; format: nucleic-acid assay; details: Bos taurus
Staphylococcus aureus [19] = test: Induction of oxidative stress in Staphylococcus aureus assessed as decrease in GSH activity at 8 times MIC relative to control; format: functional; design: scale not given: the % may be the effect or the level left
Cell membrane [20] = test: Induction of cell membrane depolarization in Staphylococcus aureus assessed as increase in fluorescence intensity by DiSC3(5) dye-based fluorescence assay
Cell membrane [21] = test: Induction of cell membrane permeabilization in Staphylococcus aureus by propidium iodide dye-based fluorescence assay
Calf thymus DNA [22] = test: Binding affinity to calf thymus DNA by acridine orange staining based competitive binding assay; format: nucleic-acid assay; details: Bos taurus
Pseudomonas aeruginosa [23] = test: Antibacterial activity against Pseudomonas aeruginosa ATCC 27853 assessed as inhibition of bacterial growth; format: functional
Staphylococcus aureus [24] = test: Antibacterial activity against Staphylococcus aureus assessed as increase in RNS production by griess reagent-based analysis; format: functional, organism-based
[25] = Hemolytic activity in RBC (unknown origin) assessed as hemolysis at 256 ug/ml incubated for 6 hrs relative to control; format: toxicity, cell-based, Erythrocyte; details: red blood cells (erythrocytes), at 256 µg/mL, read-out: Activity
Cell membrane [26] = test: Disruption of cell membrane integrity in Staphylococcus aureus assessed as cell membrane damage by scanning electron microscopic analysis; format: subcellular
Escherichia coli [27] = test: Antibacterial activity against Escherichia coli assessed as inhibition of bacterial growth; format: functional
Enterococcus faecalis = test: Antibacterial activity against Enterococcus faecalis assessed as inhibition of bacterial growth; format: functional
Calf thymus DNA [28] = test: Binding affinity to calf thymus DNA assessed as intercalation by measuring hypochromic shift by UV-Vis spectroscopic analysis; format: nucleic-acid assay; details: Bos taurus
Cell membrane [29] = test: Induction of cell membrane permeabilization in Staphylococcus aureus by calcein-AM dye-based fluorescence assay; format: subcellular
Escherichia coli [30] = test: Synergistic antibacterial activity against Escherichia coli ATCC 25922 assessed as inhibition of bacterial growth in presence of norfloxacin; format: functional
Staphylococcus aureus [31] = test: Antibacterial activity against Staphylococcus aureus assessed as effect on lipid peroxidation production at 1 to 5 times MIC incubated for 5 to 20 mins; format: functional, organism-based; details: time 5-20 min
Staphylococcus aureus [32] = test: Antibacterial activity against Staphylococcus aureus assessed as inhibition of bacterial growth at 0.5 times MIC incubated for 4 hrs; format: functional, organism-based
Staphylococcus aureus [33] = test: Antibacterial activity against Staphylococcus aureus ATCC 29213 assessed as inhibition of bacterial growth; format: functional
Staphylococcus aureus [34] = test: Antibacterial activity against Staphylococcus aureus assessed as fold increase in RNS production at 8 times MIC by griess reagent-based analysis; format: functional

Compound: CCOP(=O)(OCC)C(Nc1ccc2c(C)cc(=O)oc2c1)c1cccc(O)c1 (configuration not stated)
- Activity (Staphylococcus aureus [1]): Dose-Dependent Effect
- MIC (Staphylococcus aureus [2]): 8 µg/mL (≈ 19.2 µM)
- Activity (Staphylococcus aureus [3]): Active
- Activity (Staphylococcus aureus [4]): Dose-Dependent Effect
- Activity (Staphylococcus aureus [5]): 30%
- Activity (Staphylococcus aureus [6]): inactive
- MIC (Staphylococcus aureus [7]): 0.063 µg/mL
- Activity (Cell membrane [8]): Active
- fractional inhibitory concentration index (FICI) (Escherichia coli [9]): 0.75
- Activity (Cell membrane [10]): Dose-Dependent Effect
- MIC (Escherichia coli [11]): 4 µg/mL (≈ 9.58 µM)
- MIC (Acinetobacter baumannii): 16 µg/mL (≈ 38.3 µM)
- MIC (Staphylococcus aureus [12]): 32 µg/mL (≈ 76.7 µM)
- MIC (Pseudomonas aeruginosa [13]): 16 µg/mL (≈ 38.3 µM)
- fold change (FC) (Staphylococcus aureus [14]): 2
- MIC (Staphylococcus aureus [15]): 0.5 µg/mL (≈ 1.2 µM)
- MIC (Klebsiella pneumoniae): 64 µg/mL (≈ 153 µM)
- fractional inhibitory concentration index (FICI) (Staphylococcus aureus [16]): 0.25
- fold change (FC) (Staphylococcus aureus [17]): 3.7
- Activity (Calf thymus DNA [18]): Active
- Activity (Staphylococcus aureus [19]): 16%
- Activity (Cell membrane [20]): Dose-Dependent Effect
- Activity (Cell membrane [21]): Dose-Dependent Effect
- Activity (Calf thymus DNA [22]): Active
- MIC (Pseudomonas aeruginosa [23]): 64 µg/mL (≈ 153 µM)
- Activity (Staphylococcus aureus [24]): Dose-Dependent Effect
- hemolysis at 6 h, 256 ug/ml [25]: < 4%
- Activity (Cell membrane [26]): Active
- MIC (Escherichia coli [27]): 64 µg/mL (≈ 153 µM)
- MIC (Enterococcus faecalis): 16 µg/mL (≈ 38.3 µM)
- Activity (Calf thymus DNA [28]): Dose-Dependent Effect
- Activity (Cell membrane [29]): Dose-Dependent Effect
- MIC (Escherichia coli [30]): 1 µg/mL
- Activity (Staphylococcus aureus [31]): inactive
- Activity (Staphylococcus aureus [32]): Active
- MIC (Staphylococcus aureus [33]): 16 µg/mL (≈ 38.3 µM)
- fold change (FC) (Staphylococcus aureus [34]): 2.2
